Reference: patent EP0440303A1 (PROBICOM RESEARCH B.V., priority 1990, dated 1991)
Where a SMILES comes first, the peptide text is derived from it.

T1: tripeptidase of L.lactis subsp. cremoris Wg2 (Lactococcus lactis subsp. cremoris, UniProt P0C2T7)
T1 sequence (P0C2T7 1-413): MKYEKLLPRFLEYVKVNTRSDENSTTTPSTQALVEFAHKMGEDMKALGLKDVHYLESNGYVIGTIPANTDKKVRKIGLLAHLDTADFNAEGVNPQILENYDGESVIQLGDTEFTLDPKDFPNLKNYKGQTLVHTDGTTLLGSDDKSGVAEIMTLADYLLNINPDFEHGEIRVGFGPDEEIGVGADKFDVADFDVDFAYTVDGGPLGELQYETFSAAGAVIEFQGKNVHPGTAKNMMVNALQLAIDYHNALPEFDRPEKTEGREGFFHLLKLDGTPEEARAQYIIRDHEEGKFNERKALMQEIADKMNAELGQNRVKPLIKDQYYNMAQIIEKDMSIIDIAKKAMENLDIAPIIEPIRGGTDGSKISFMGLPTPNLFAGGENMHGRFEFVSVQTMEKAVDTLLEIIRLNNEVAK

B1: tripeptidase of L.lactis subsp. cremoris Wg2 (Lactococcus cremoris) (protein)
chain: MKYEKLLPRFLEYVKVNTRSDENSTTTPSTQALVEFAHKMGEDMKALGLKDVHYLESNGYVIGTIPANTDKKVRKIGLLAHLDTADFNAEGVNPQILENYDGESVIQLGDTEFTLDPKDFPNLKNYKGQTLVHTDGTTLLGSDDKSGVAEIMTLADYLLNINPDFEHGEIRVGFGPDEEIGVGADKFDVADFDVDFAYTVDGGPLGELQYETFSAAGAVIEFQGKNVHPGTAKNMMVNALQLAIDYHNALPEFDRPEKTEGREGFFHLLKLDGTPEEARAQYIIRDHEEGKFNERKALMQEIADKMNAELGQNRVKPLIKDQYYNMAQIIEKDMSIIDIAKKAMENLDIAPIIEPIRGGTDGSKISFMGLPTPNLFAGGENMHGRFEFVSVQTMEKAVDTLLEIIRLNNEVAK
notes: the resulting supernatant (i.e. cell-free extract) was used for enzyme isolation; made in house; host or cells: Natural producer L. lactis subsp. cremoris Wg2 (proteinase-negative variant), not recombinant; Purified by DEAE-Sephacel, Phenyl-Sepharose, Sephadex G-100 SF and HPLC TSK G3000 SW

The molecules below were run against T1, tripeptidase of L.lactis subsp. cremoris Wg2 (assay: Substrate specificity: peptide hydrolysis analysed by TLC). Conditions: peptide hydrolysis by the purified peptidase, 2 mM substrate in 20 mM HEPES (pH 7.0), 60 min at 30°C.
Assay type: biochemical
Parameters: key: + : hydrolysis; - : no hydrolysis
With `CC(C)CC(NC(=O)CNC(=O)CN)C(=O)O` (stereo not shown) the activity was “+”.
For `C[C@H](N)C(=O)N[C@@H](C)C(=O)O` [Ala2] (H-Ala-Ala-OH), the activity was “-”.
With `C[C@H](N)C(=O)N[C@@H](C)C(=O)N[C@@H](C)C(=O)O` [Ala3] the activity was “+”.
For `C[C@H](N)C(=O)N[C@@H](C)C(=O)N[C@@H](C)C(=O)N[C@@H](C)C(=O)O` [Ala4] (H-AAAA-OH), the activity was “-”.
In the case of `C[C@H](N)C(=O)N[C@@H](C)C(=O)N[C@@H](C)C(=O)N[C@@H](C)C(=O)N[C@@H](C)C(=O)O` [Ala5], the activity is reported as “-”.
With `C[C@H](N)C(=O)N[C@@H](C)C(=O)N[C@@H](C)C(=O)N[C@@H](C)C(=O)N[C@@H](C)C(=O)N[C@@H](C)C(=O)O` [Ala6] the activity was “-”.
For `C[C@H](N)C(=O)N[C@@H](CC(=O)O)C(=O)O` [Ala-Asp] (H-Ala-Asp-OH), the activity was “-”.
`C[C@H](N)C(=O)N[C@@H](Cc1cnc[nH]1)C(=O)N[C@@H](C)C(=O)O` [Ala-His-Ala] (H-Ala-His-Ala-OH) was tested, and the activity was “+”.
With `C[C@H](N)C(=O)N1CCC[C@H]1C(=O)N[C@@H](C)C(=O)O` [Ala-Pro-Ala] (H-Ala-Pro-Ala-OH) the activity was “-”.
With `C[C@H](N)C(=O)N1CCC[C@H]1C(=O)N[C@@H](Cc1ccccc1)C(=O)O` [Ala-Pro-Phe] (H-Ala-Pro-Phe-OH) the activity was “-”.
For `CC(C)CC(NC(=O)C(NC(=O)C(C)N)C(C)C)C(=O)O` (stereo not drawn) [Ala-Val-Leu], the activity was “+”.
With `N=C(N)NCCCC(N)C(=O)NCC(=O)NCC(=O)O` (stereo not drawn) [Arg-Gly-Gly] the activity was “+”.
In the case of `C[C@H](NC(=O)[C@@H](N)CCC(=O)O)C(=O)O` [Glu-Ala] (H-Glu-Ala-OH), the activity is reported as “-”.
For `N[C@@H](CCC(=O)O)C(=O)N[C@@H](CCC(=O)O)C(=O)O` [Glu-Glu] (H-Glu-Glu-OH), the activity was “-”.
For `NCCCC[C@H](NC(=O)[C@@H](N)CCC(=O)O)C(=O)O` [Glu-Lys] (H-Glu-Lys-OH), the activity was “-”.
`CC(C)[C@H](NC(=O)[C@@H](N)CCC(=O)O)C(=O)N[C@@H](Cc1ccccc1)C(=O)O` [Glu-Val-Phe] (H-Glu-Val-Phe-OH) was tested, and the activity was “+”.
With `CC(C)[C@H](NC(=O)[C@@H](N)CCC(=O)O)C(=O)O` [Glu-Val] (H-Glu-Val-OH) the activity was “-”.
`NCC(=O)NCC(=O)NCC(=O)O` [Gly-Gly-Gly] (H-Gly-Gly-Gly-OH) was tested, and the activity was “+”.
`NCC(=O)NCC(=O)NC(Cc1ccccc1)C(=O)O` (stereo not drawn) [Gly-Gly-Phe] was tested, and the activity was “+”.
In the case of `NCC(=O)NCC(=O)O` [Gly-Gly] (H-Gly-Gly-OH), the activity is reported as “-”.
`NCC(=O)NC(Cc1cnc[nH]1)C(=O)NCC(=O)O` (stereo not drawn) [Gly-His-Gly] was tested, and the activity was “+”.
`CC(C)CC(NC(=O)CN)C(=O)NC(Cc1ccc(O)cc1)C(=O)O` (stereo not drawn) [Gly-Leu-Tyr] (H-Gly-Leu-Tyr-OH; configuration not given here) was tested, and the activity was “+”.
With `CC(C)CC(NC(=O)C(Cc1ccccc1)NC(=O)CN)C(=O)O` (stereo not drawn) [Gly-Phe-Leu] (H-Gly-Phe-Leu-OH; configuration not given here) the activity was “+”.
`CC(NC(=O)C1CCCN1C(=O)CN)C(=O)O` (stereo not drawn) [Gly-Pro-Ala] was tested, and the activity was “-”.
In the case of `NCC(=O)N1CCC[C@H]1C(=O)NCC(=O)NCC(=O)O` [Gly-Pro-Gly-Gly] (H-GPGG-OH), the activity is reported as “-”.
In the case of `CC(NC(=O)C(CO)NC(=O)CN)C(=O)O` (stereo not drawn) [Gly-Ser-Ala], the activity is reported as “+”.
In the case of `CC(NC(=O)C(Cc1ccc(O)cc1)NC(=O)CN)C(=O)O` (stereo not drawn) [Gly-Tyr-Ala], the activity is reported as “+”.
In the case of `NC(Cc1cnc[nH]1)C(=O)NCC(=O)NCC(=O)O` (stereo not drawn) [His-Gly-Gly], the activity is reported as “+”.
In the case of `CC(C)C[C@H](N)C(=O)NCC(=O)NCC(=O)O` [Leu-Gly-Gly, leucyl-glycyl-glycine] (H-Leu-Gly-Gly-OH), the activity is reported as “+”.
In the case of `CC(C)C[C@H](N)C(=O)NCC(=O)O` [Leu-Gly] (H-Leu-Gly-OH), the activity is reported as “-”.
In the case of `CC(C)C[C@H](NC(=O)[C@H](CC(C)C)NC(=O)[C@@H](N)CC(C)C)C(=O)O` [Leu-Leu-Leu, leucyl-leucyl-leucine] (H-Leu-Leu-Leu-OH), the activity is reported as “+”.
In the case of `CC(C)C[C@H](NC(=O)[C@@H](N)CC(C)C)C(=O)O` [Leu-Leu], the activity is reported as “-”.
With `CSCC[C@H](NC(=O)[C@@H](N)CC(C)C)C(=O)O` [Leu-Met] (H-Leu-Met-OH) the activity was “-”.
In the case of `CSCCC(N)C(=O)NCC(=O)NCC(=O)O` (stereo not drawn) [Met-Gly-Gly], the activity is reported as “+”.
With `CSCC[C@H](NC(=O)[C@H](Cc1ccccc1)NC(=O)CNC(=O)CNC(=O)[C@@H](N)Cc1ccc(O)cc1)C(=O)O` [Met-enkephalin] the activity was “-”.
In the case of `NCCC[C@H](NC(=O)[C@H](CCCN)NC(=O)[C@@H](N)CCCN)C(=O)O` [Orn-Orn-Orn], the activity is reported as “+”.
`NC(Cc1ccccc1)C(=O)NCC(=O)NCC(=O)O` (stereo not drawn) [Phe-Gly-Gly] was tested, and the activity was “+”.
In the case of `CC(C)C[C@H](NC(=O)[C@@H](N)Cc1ccccc1)C(=O)O` [Phe-Leu] (H-Phe-Leu-OH), the activity is reported as “-”.
For `O=C(O)CNC(=O)CNC(=O)C1CCCN1` (stereo not drawn) [Pro-Gly-Gly], the activity was “+”.
With `NC(CO)C(=O)NCC(=O)NCC(=O)O` (stereo not drawn) [Ser-Gly-Gly] the activity was “+”.
`CSCC[C@H](NC(=O)[C@H](CC(C)C)NC(=O)CNC(=O)[C@H](Cc1ccccc1)NC(=O)[C@H](Cc1ccccc1)NC(=O)[C@H](CCC(N)=O)NC(=O)[C@H](CCC(N)=O)NC(=O)[C@@H]1CCCN1C(=O)[C@H](CCCCN)NC(=O)[C@@H]1CCCN1C(=O)[C@@H](N)CCCNC(=N)N)C(N)=O` [Substance P] was tested, and the activity was “-”.
With `N[C@@H](Cc1c[nH]c2ccccc12)C(=O)NCC(=O)NCC(=O)O` [Trp-Gly-Gly] (H-Trp-Gly-Gly-OH) the activity was “+”.
For `N[C@@H](Cc1ccc(O)cc1)C(=O)NCC(=O)NCC(=O)O` [Tyr-Gly-Gly] (H-Tyr-Gly-Gly-OH), the activity was “+”.
For `CC(C)[C@H](N)C(=O)NCC(=O)NCC(=O)O` [Val-Gly-Gly] (H-Val-Gly-Gly-OH), the activity was “+”.
For “Bradykinin (RPPGFSPFR; Bradykinin; UniProt P01042 381-389, looked up)”, the activity was “-”.
Neurotensin was tested, and the activity was “-”.
In the case of oxidized β-chain insulin, the activity is reported as “-”.

What follows are molecules tested against T1, tripeptidase of L.lactis subsp. cremoris Wg2 (assay: Effects of chemical agents on the peptidase activity (leu3 hydrolysis)). Conditions: not given.
Assay type: biochemical
With `COC(CNC(=O)c1ccccc1OCC(=O)O)[CH2][Hg][OH]` (stereo not shown) [Mersalyl, o-(3-hydroxymercuri-2-methoxypropyl)carbamylphenoxyacetate] the “effect on the enzyme (summary in words)” value was “not inhibited”.
In the case of `CCN1C(=O)C=CC1=O` [NEM, N-ethylmaleimide], the “effect on the enzyme activity (in words)” value is reported as “slightly inhibited the activity”.
`O=C(O)c1cc[c]([Hg][Cl])cc1` [pCMB, p-chloromercuribenzoate] was tested, and the “effect on the enzyme (summary in words)” value was “not inhibited”.
In the case of `O=S(=O)(O)c1cc[c]([Hg][Cl])cc1` [pCMBS, p-chloromercuribenzenesulphonate], the “effect on the enzyme (summary in words)” value is reported as “not inhibited”.

Same assay, conditions: NEM 0.5 mM; cystine 0.05 mM; phenylarsine oxide 0.1 mM; DTT 1 mM; β-mercaptoethanol 0.4 mM; ferricyanide 3 mM after the reducing agents
In the case of `O[C@H](CS)[C@H](O)CS` (racemic) [DTT, dithiothreitol], the “effect on the enzyme activity (in words)” value is reported as “strong inhibition”.
In the case of `N[C@@H](CSSC[C@H](N)C(=O)O)C(=O)O` [Cystine, cystine], the “effect on the enzyme activity (in words)” value is reported as “had no effect on the enzyme activity”.
With `OCCS` [β-Mercaptoethanol, β-mercaptoethanol] the “effect on the enzyme activity (in words)” value was “strong inhibition”.

Same assay, conditions: pH 7, read-out: relative activity (%)
In the case of `CCN1C(=O)C=CC1=O` [NEM, N-ethylmaleimide], the activity at 500 µM is reported as 76%.

Same assay, conditions: pH 7; read-out: relative activity (%)
Work on `OCCS` [β-Mercaptoethanol, β-mercaptoethanol] yielded an activity at 400 µM of 14%.

Same assay, conditions: reagent 0.05 mM; 0.84 μg enzyme/ml, 10 min at pH 7 (20°C) before leu3 was added; none = 100; read-out: relative activity (%)
For `N[C@@H](CSSC[C@H](N)C(=O)O)C(=O)O` [Cystine, cystine], the activity at 50 µM was 118%.

Same assay, conditions: reagent 1 mM; 0.84 μg enzyme/ml, 10 min at pH 7 (20°C) before leu3 was added; none = 100; read-out: relative activity (%)
For `O[C@H](CS)[C@H](O)CS` (racemic) [DTT, dithiothreitol], the activity at 1000 µM was 4%.

Same assay, conditions: summary statement, concentration not given
`O[C@H](CS)[C@H](O)CS` (racemic) [DTT, dithiothreitol] was tested, and the “effect on the enzyme (summary in words)” value was “strong inhibition”.
`OCCS` [β-Mercaptoethanol, β-mercaptoethanol] was tested, and the “effect on the enzyme (summary in words)” value was “strong inhibition”.

What follows are molecules tested on CC(C)C[C@H](NC(=O)[C@H](CC(C)C)NC(=O)[C@@H](N)CC(C)C)C(=O)O (assay: Determination of kinetic parameters for leu3 hydrolysis (coupled enzyme reaction)). Conditions: other: leu₃ as substrate, 30°C.
Assay type: biochemical, L.lactis subsp. cremoris Wg2
With B1 the Km was 150 µM, the Vmax was 151 µmol/min.mg protein and the kcat was 264 s⁻¹.

The molecules below were run against T1, tripeptidase of L.lactis subsp. cremoris Wg2 (assay: biochemical). Conditions: read-out: inhibition of the enzyme activity.
Experimental: Peptidase activity was determined by measuring the release of leucine from the tripeptide leucyl-leucyl-leucine (leu₃) (2 mM in 20 mM 4-(2-hydroxyethyl)-1-piperazine-ethane-sulphonic acid [HEPES], pH 7.0). Enzyme and substrate were incubated for 10 min. at 30°C, and the release of leucine was measured by the modified cadmium-ninhydrin method as described by Doi et al., Anal.Biochem. 118, 1981, 173-184. […] Peptidase activity was determined as follows: the reaction mixture containing 2 mM substrate in 20 mM HEPES (pH 7.0) and a suitable amount of enzyme was incubated for 60 min. at 30°C.
All the metal ions were added in the form of chlorides to exclude a possible effect of the anions.
`O=C(O)CN(CCN(CC(=O)O)CC(=O)O)CC(=O)O` [EDTA] showed an inhibition at 200 µM of 79%.
